Measurements reported in ChEMBL document CHEMBL1275409, “Antimicrobial-resistant pathogens in intensive care units in Canada: results of the Canadian National Intensive Care Unit (CAN-ICU) study, 2005-2006” (2008).

Legend:
Assay type in all cases: functional
Staphylococcus aureus [1] = assay: Antimicrobial activity against methicillin-susceptible Staphylococcus aureus isolated from ICU patient urine assessed as resistant isolates by broth microdilution method
Staphylococcus aureus [2] = assay: Antimicrobial activity against methicillin-resistant Staphylococcus aureus isolated from ICU patient respiratory tract assessed as resistant isolates by broth microdilution method
Staphylococcus aureus [3] = assay: Antimicrobial activity against methicillin-susceptible Staphylococcus aureus assessed as resistant isolates by broth microdilution method
Haemophilus influenzae [4] = assay: Antimicrobial activity against Haemophilus influenzae isolated from ICU patient respiratory tract assessed as resistant isolates by broth microdilution method
Escherichia coli [5] = assay: Antimicrobial activity against CTX-M ESBL producing Escherichia coli isolated from ICU patient urine assessed as resistant isolates by broth microdilution method
Streptococcus pneumoniae [6] = assay: Antimicrobial activity against penicillin-resistant Streptococcus pneumoniae isolated from ICU patient respiratory tract assessed as resistant isolates by broth microdilution method
Streptococcus pneumoniae [7] = assay: Antimicrobial activity against penicillin-resistant Streptococcus pneumoniae assessed as resistant isolates by broth microdilution method
[8] = tested on: Staphylococcus epidermidis; assay: Antimicrobial activity against methicillin-susceptible Staphylococcus epidermidis isolated from ICU patient wound assessed as resistant isolates by broth microdilution method
Staphylococcus aureus [9] = assay: Antimicrobial activity against methicillin-susceptible Staphylococcus aureus isolated from ICU patient respiratory tract assessed as resistant isolates by broth microdilution method
Pseudomonas aeruginosa [10] = assay: Antimicrobial activity against carbapenem-resistant Pseudomonas aeruginosa isolated from ICU patient wound assessed as resistant isolates by broth microdilution method
Streptococcus pneumoniae [11] = assay: Antimicrobial activity against penicillin-resistant Streptococcus pneumoniae isolated from ICU patient wound assessed as resistant isolates by broth microdilution method
Streptococcus pneumoniae [12] = assay: Antimicrobial activity against penicillin-resistant Streptococcus pneumoniae isolated from ICU patient blood assessed as resistant isolates by broth microdilution method
Klebsiella pneumoniae [13] = assay: Antimicrobial activity against ESBL producing Klebsiella pneumoniae isolated from ICU patient wound assessed as resistant isolates by broth microdilution method
Staphylococcus aureus [14] = assay: Antimicrobial activity against methicillin-resistant Staphylococcus aureus isolated from ICU patient urine assessed as resistant isolates by broth microdilution method
Escherichia coli [15] = assay: Antimicrobial activity against CTX-M ESBL producing Escherichia coli isolated from ICU patient blood assessed as resistant isolates by broth microdilution method
Staphylococcus aureus [16] = assay: Antimicrobial activity against methicillin-resistant Staphylococcus aureus isolated from ICU patient blood assessed as resistant isolates by broth microdilution method
Klebsiella pneumoniae [17] = assay: Antimicrobial activity against ESBL producing Klebsiella pneumoniae isolated from ICU patient blood assessed as resistant isolates by broth microdilution method
Klebsiella pneumoniae [18] = assay: Antimicrobial activity against ESBL producing Klebsiella pneumoniae isolated from ICU patient urine assessed as resistant isolates by broth microdilution method
Haemophilus influenzae [19] = assay: Antimicrobial activity against Haemophilus influenzae assessed as resistant isolates by broth microdilution method
[20] = tested on: Staphylococcus epidermidis; assay: Antimicrobial activity against methicillin-resistant Staphylococcus epidermidis isolated from ICU patient blood assessed as resistant isolates by broth microdilution method
Escherichia coli [21] = assay: Antimicrobial activity against CTX-M ESBL producing Escherichia coli assessed as resistant isolates by broth microdilution method
Haemophilus influenzae [22] = assay: Antimicrobial activity against Haemophilus influenzae isolated from ICU patient blood assessed as resistant isolates by broth microdilution method
[23] = tested on: Staphylococcus epidermidis; assay: Antimicrobial activity against methicillin-susceptible Staphylococcus epidermidis isolated from ICU patient respiratory tract assessed as resistant isolates by broth microdilution method
Pseudomonas aeruginosa [24] = assay: Antimicrobial activity against carbapenem-resistant Pseudomonas aeruginosa isolated from ICU patient urine assessed as resistant isolates by broth microdilution method
Haemophilus influenzae [25] = assay: Antimicrobial activity against Haemophilus influenzae isolated from ICU patient wound assessed as resistant isolates by broth microdilution method
Klebsiella pneumoniae [26] = assay: Antimicrobial activity against ESBL producing Klebsiella pneumoniae isolated from ICU patient respiratory tract assessed as resistant isolates by broth microdilution method
Staphylococcus aureus [27] = assay: Antimicrobial activity against methicillin-resistant Staphylococcus aureus isolated from ICU patient wound assessed as resistant isolates by broth microdilution method
Staphylococcus aureus [28] = assay: Antimicrobial activity against methicillin-susceptible Staphylococcus aureus isolated from ICU patient wound assessed as resistant isolates by broth microdilution method
[29] = tested on: Staphylococcus epidermidis; assay: Antimicrobial activity against methicillin-susceptible Staphylococcus epidermidis isolated from ICU patient blood assessed as resistant isolates by broth microdilution method
[30] = tested on: Staphylococcus epidermidis; assay: Antimicrobial activity against methicillin-resistant Staphylococcus epidermidis isolated from ICU patient wound assessed as resistant isolates by broth microdilution method
Pseudomonas aeruginosa [31] = assay: Antimicrobial activity against carbapenem-resistant Pseudomonas aeruginosa isolated from ICU patient blood assessed as resistant isolates by broth microdilution method
[32] = tested on: Staphylococcus epidermidis; assay: Antimicrobial activity against methicillin-resistant Staphylococcus epidermidis isolated from ICU patient urine assessed as resistant isolates by broth microdilution method
[33] = tested on: Staphylococcus epidermidis; assay: Antimicrobial activity against methicillin-susceptible Staphylococcus epidermidis isolated from ICU patient urine assessed as resistant isolates by broth microdilution method
Klebsiella pneumoniae [34] = assay: Antimicrobial activity against ESBL producing Klebsiella pneumoniae assessed as resistant isolates by broth microdilution method
Escherichia coli [35] = assay: Antimicrobial activity against CTX-M ESBL producing Escherichia coli isolated from ICU patient respiratory tract assessed as resistant isolates by broth microdilution method
[36] = tested on: Staphylococcus epidermidis; assay: Antimicrobial activity against methicillin-resistant Staphylococcus epidermidis assessed as resistant isolates by broth microdilution method
Pseudomonas aeruginosa [37] = assay: Antimicrobial activity against carbapenem-resistant Pseudomonas aeruginosa assessed as resistant isolates by broth microdilution method
[38] = tested on: Staphylococcus epidermidis; assay: Antimicrobial activity against methicillin-susceptible Staphylococcus epidermidis assessed as resistant isolates by broth microdilution method
Staphylococcus aureus [39] = assay: Antimicrobial activity against methicillin-susceptible Staphylococcus aureus isolated from ICU patient blood assessed as resistant isolates by broth microdilution method
Staphylococcus aureus [40] = assay: Antimicrobial activity against methicillin-resistant Staphylococcus aureus assessed as resistant isolates by broth microdilution method
Pseudomonas aeruginosa [41] = assay: Antimicrobial activity against carbapenem-resistant Pseudomonas aeruginosa isolated from ICU patient respiratory tract assessed as resistant isolates by broth microdilution method
Enterobacter cloacae [42] = assay: Antimicrobial activity against carbapenem-resistant Enterobacter cloacae assessed as resistant isolates by broth microdilution method
Enterobacter cloacae [43] = assay: Antimicrobial activity against carbapenem-resistant Enterobacter cloacae isolated from ICU patient wound assessed as resistant isolates by broth microdilution method
Enterobacter cloacae [44] = assay: Antimicrobial activity against carbapenem-resistant Enterobacter cloacae isolated from ICU patient blood assessed as resistant isolates by broth microdilution method
Enterobacter cloacae [45] = assay: Antimicrobial activity against carbapenem-resistant Enterobacter cloacae isolated from ICU patient respiratory tract assessed as resistant isolates by broth microdilution method
Escherichia coli [46] = assay: Antimicrobial activity against CTX-M ESBL producing Escherichia coli isolated from ICU patient wound assessed as resistant isolates by broth microdilution method
Enterobacter cloacae [47] = assay: Antimicrobial activity against carbapenem-resistant Enterobacter cloacae isolated from ICU patient urine assessed as resistant isolates by broth microdilution method

Measured: Activity

CO/N=C(\C(=O)N[C@@H]1C(=O)N2C(C(=O)[O-])=C(C[N+]3(C)CCCC3)CS[C@H]12)c1csc(N)n1
8.9%: [29]
1.4%: Escherichia coli [15]
0.7%: Escherichia coli [21]
18.9%: Klebsiella pneumoniae [13]
10.2%: Klebsiella pneumoniae [34]
7.6%: Klebsiella pneumoniae [26]
100%: Staphylococcus aureus [2] | Staphylococcus aureus [14] | Staphylococcus aureus [16] | [20] | Staphylococcus aureus [27] | [30] | [32] | [36] | Staphylococcus aureus [40]
33.3%: [8]
16.3%: [38]
9.1%: Klebsiella pneumoniae [17]
20%: [33]
0.8%: Escherichia coli [35]
17.8%: Klebsiella pneumoniae [18]
0.4%: Escherichia coli [5]
not listed: Enterobacter cloacae [42] | Enterobacter cloacae [43] | Enterobacter cloacae [44] | Enterobacter cloacae [45] | Escherichia coli [46] | Enterobacter cloacae [47]
0%: all other assays above

NCC[C@H](O)C(=O)N[C@@H]1C[C@H](N)[C@@H](O[C@H]2O[C@H](CN)[C@@H](O)[C@H](O)[C@H]2O)[C@H](O)[C@H]1O[C@H]1O[C@H](CO)[C@@H](O)[C@H](N)[C@H]1O [AMIKACIN]
1.9%: Klebsiella pneumoniae [13]
2.6%: Klebsiella pneumoniae [34]
2.4%: Klebsiella pneumoniae [26]
0%: Enterobacter cloacae [42] | Escherichia coli [5] | Pseudomonas aeruginosa [10] | Enterobacter cloacae [43] | Escherichia coli [15] | Klebsiella pneumoniae [17] | Enterobacter cloacae [44] | Enterobacter cloacae [45] | Escherichia coli [21] | Pseudomonas aeruginosa [24] | Pseudomonas aeruginosa [31] | Escherichia coli [46] | Escherichia coli [35] | Pseudomonas aeruginosa [37] | Enterobacter cloacae [47] | Pseudomonas aeruginosa [41]
6.7%: Klebsiella pneumoniae [18]
